Test [1] deals with Phosphatidylinositol 4,5-bisphosphate 3-kinase catalytic subunit gamma isoform (Homo sapiens, UniProt P48736). In words: Inhibition of recombinant PI3Kgamma (unknown origin) using […] as substrate after 3 hrs incubation by competitive fluorescence polarization kinase activity assay.
Test [2] has as its target T1, Phosphatidylinositol 4,5-bisphosphate 3-kinase catalytic subunit delta isoform (Homo sapiens, UniProt O00329).
T1 sequence (O00329 whole entry): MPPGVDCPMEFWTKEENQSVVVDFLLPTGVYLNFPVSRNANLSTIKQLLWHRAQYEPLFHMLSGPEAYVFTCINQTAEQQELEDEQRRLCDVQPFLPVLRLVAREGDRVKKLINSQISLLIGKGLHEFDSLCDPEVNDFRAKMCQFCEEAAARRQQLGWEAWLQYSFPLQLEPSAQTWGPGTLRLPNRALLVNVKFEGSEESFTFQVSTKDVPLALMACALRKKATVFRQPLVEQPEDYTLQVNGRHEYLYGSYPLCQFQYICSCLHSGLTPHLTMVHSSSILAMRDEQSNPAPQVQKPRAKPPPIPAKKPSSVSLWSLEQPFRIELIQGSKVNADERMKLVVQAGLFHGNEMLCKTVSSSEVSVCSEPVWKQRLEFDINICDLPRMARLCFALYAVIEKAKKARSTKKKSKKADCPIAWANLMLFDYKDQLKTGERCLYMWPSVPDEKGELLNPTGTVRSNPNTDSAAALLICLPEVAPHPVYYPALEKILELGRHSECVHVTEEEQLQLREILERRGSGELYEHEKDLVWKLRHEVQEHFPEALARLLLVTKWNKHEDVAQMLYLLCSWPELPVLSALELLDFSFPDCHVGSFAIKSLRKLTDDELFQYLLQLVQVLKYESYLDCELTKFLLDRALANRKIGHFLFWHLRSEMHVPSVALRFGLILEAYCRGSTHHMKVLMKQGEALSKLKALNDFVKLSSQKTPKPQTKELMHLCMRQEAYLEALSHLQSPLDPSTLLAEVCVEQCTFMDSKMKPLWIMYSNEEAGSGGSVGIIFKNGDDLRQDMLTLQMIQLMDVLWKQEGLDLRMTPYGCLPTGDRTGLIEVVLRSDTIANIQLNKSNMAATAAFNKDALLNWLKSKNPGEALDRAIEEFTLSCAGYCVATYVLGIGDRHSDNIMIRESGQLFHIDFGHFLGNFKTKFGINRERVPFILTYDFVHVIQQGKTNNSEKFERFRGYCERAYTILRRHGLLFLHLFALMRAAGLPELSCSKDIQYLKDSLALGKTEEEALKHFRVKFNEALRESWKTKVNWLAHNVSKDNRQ
In words: Inhibition of recombinant PI3Kdelta (unknown origin) using […] as substrate after 3 hrs incubation by competitive fluorescence polarization kinase activity assay.

A short description of test [3]: Antiproliferative activity against human HCT116 cells assessed as inhibition of absorbance after 72 hrs by MTT assay. To be noted: HCT-116, 72 h. It is filed as functional, cell-based.
The nature of test [4]: Antiproliferative activity against human HL60 cells assessed as inhibition of absorbance after 72 hrs by MTT assay. In kind it is functional, cell-based. The settings on record: HL-60, 72 h.
In a further test the test system is A549. In words: Antiproliferative activity against human A549 cells assessed as inhibition of absorbance after 72 hrs by MTT assay. It is filed as functional, cell-based. The settings on record: A549, 72 h.
The target of test [5] is Phosphatidylinositol 4,5-bisphosphate 3-kinase catalytic subunit beta isoform (Homo sapiens, UniProt P42338). In words: Inhibition of recombinant PI3Kbeta (unknown origin) […] after 3 hrs incubation by competitive fluorescence polarization kinase activity assay.
Sequence of Phosphatidylinositol 4,5-bisphosphate 3-kinase catalytic subunit beta isoform (P42338 whole entry, canonical isoform): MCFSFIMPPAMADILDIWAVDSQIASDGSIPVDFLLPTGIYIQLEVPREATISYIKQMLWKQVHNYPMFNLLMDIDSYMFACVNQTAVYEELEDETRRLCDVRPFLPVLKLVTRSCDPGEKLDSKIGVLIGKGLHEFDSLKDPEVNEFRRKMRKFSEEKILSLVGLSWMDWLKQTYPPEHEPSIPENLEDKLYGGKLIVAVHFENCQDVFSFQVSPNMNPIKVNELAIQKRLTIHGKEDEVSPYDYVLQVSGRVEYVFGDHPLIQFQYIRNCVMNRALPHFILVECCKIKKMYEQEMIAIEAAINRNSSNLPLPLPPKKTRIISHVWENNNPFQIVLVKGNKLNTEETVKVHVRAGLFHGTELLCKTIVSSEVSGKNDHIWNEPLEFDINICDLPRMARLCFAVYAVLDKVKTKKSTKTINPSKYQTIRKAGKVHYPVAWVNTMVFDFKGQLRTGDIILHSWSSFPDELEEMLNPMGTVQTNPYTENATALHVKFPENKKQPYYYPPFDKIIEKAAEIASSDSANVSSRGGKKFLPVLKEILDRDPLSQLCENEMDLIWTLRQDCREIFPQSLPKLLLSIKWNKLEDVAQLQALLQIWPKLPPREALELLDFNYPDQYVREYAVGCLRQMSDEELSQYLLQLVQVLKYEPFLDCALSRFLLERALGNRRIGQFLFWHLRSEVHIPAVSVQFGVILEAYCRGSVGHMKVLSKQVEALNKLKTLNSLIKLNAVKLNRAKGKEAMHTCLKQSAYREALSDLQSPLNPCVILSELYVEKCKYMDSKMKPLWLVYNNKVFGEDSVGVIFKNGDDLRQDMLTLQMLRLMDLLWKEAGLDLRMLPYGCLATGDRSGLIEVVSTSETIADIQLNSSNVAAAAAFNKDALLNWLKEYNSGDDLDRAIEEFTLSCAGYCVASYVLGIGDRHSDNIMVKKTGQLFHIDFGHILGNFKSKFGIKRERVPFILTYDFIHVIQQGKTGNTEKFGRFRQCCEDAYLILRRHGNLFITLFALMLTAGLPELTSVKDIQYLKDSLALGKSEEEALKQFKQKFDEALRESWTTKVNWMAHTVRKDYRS
Test [6] in a line: Antiproliferative activity against human HuH7 cells assessed as inhibition of absorbance after 72 hrs by MTT assay. It is filed as functional, cell-based. The settings on record: Huh-7, 72 h.
Test [7] concerns the target Phosphatidylinositol 4,5-bisphosphate 3-kinase catalytic subunit alpha isoform (Homo sapiens, UniProt P42336). The test is described as follows: Inhibition of recombinant PI3Kalpha (unknown origin) using […] as substrate after 3 hrs incubation by competitive fluorescence polarization kinase activity assay.
Test [8] concerns HCT-116. The test is described as follows: Induction of apoptosis in human HCT116 cells assessed as viable cells at 0.5 uM after 24 hrs using annexin V/propidium iodide staining based flow cytometry (reference value: 93.3%). The settings on record: HCT-116, 24 h, read-out: Activity. In kind it is functional.
The subject of test [9] is HCT-116. The test is described as follows: Induction of apoptosis in human HCT116 cells assessed as late apoptotic cells at 2 uM after 24 hrs using annexin V/propidium iodide staining based flow cytometry (reference value: 0.710%). It is filed as functional.
In test [10] the test system is HCT-116. The test is described as follows: Induction of apoptosis in human HCT116 cells assessed as early apoptotic cells at 0.5 uM after 24 hrs using annexin V/propidium iodide staining based flow cytometry (reference value: 1.93%). It is filed as functional.
The test system of test [11] is HCT-116. In words: Induction of apoptosis in human HCT116 cells assessed as early apoptotic cells at 2 uM after 24 hrs using annexin V/propidium iodide staining based flow cytometry (reference value: 1.93%). It is filed as functional.
For test [12], the system named is HCT-116. In words: Induction of apoptosis in human HCT116 cells assessed as early apoptotic cells after 24 hrs using annexin V/propidium iodide staining based flow cytometry. It is filed as functional, cell-based.
Test [13] relates to HCT-116. The test is described as follows: Induction of apoptosis in human HCT116 cells assessed as late apoptotic cells at 1 uM after 24 hrs using annexin V/propidium iodide staining based flow cytometry (reference value: 0.710%). In kind it is functional.
For test [14], the system named is HCT-116. In words: Induction of apoptosis in human HCT116 cells assessed as necrotic cells at 2 uM after 24 hrs using annexin V/propidium iodide staining based flow cytometry (reference value: 4.09%). In kind it is functional.
The subject of test [15] is HCT-116. The test is described as follows: Induction of apoptosis in human HCT116 cells after 24 hrs using annexin V/propidium iodide staining based flow cytometry. It is filed as functional, cell-based.
Test [16] deals with HCT-116. In words: Induction of apoptosis in human HCT116 cells assessed as necrotic cells at 1 uM after 24 hrs using annexin V/propidium iodide staining based flow cytometry (reference value: 4.09%). In kind it is functional.
In test [17] the test system is HCT-116. In words: Induction of apoptosis in human HCT116 cells assessed as late apoptotic cells at 0.5 uM after 24 hrs using annexin V/propidium iodide staining based flow cytometry (reference value: 0.710%). It is filed as functional.
The subject of test [18] is HCT-116. In words: Induction of apoptosis in human HCT116 cells assessed as viable cells at 1 uM after 24 hrs using annexin V/propidium iodide staining based flow cytometry (reference value: 93.3%). In kind it is functional. The settings on record: HCT-116, 24 h, read-out: Activity.
Test [19] has as its system HCT-116. The test is described as follows: Induction of apoptosis in human HCT116 cells assessed as necrotic cells at 0.5 uM after 24 hrs using annexin V/propidium iodide staining based flow cytometry (reference value: 4.09%). In kind it is functional.
Test [20] concerns HCT-116. The test is described as follows: Induction of apoptosis in human HCT116 cells assessed as early apoptotic cells at 1 uM after 24 hrs using annexin V/propidium iodide staining based flow cytometry (reference value: 1.93%). In kind it is functional.
Test [21] has as its system HCT-116. In words: Induction of apoptosis in human HCT116 cells assessed as viable cells at 2 uM after 24 hrs using annexin V/propidium iodide staining based flow cytometry (reference value: 93.3%). In kind it is functional. To be noted: HCT-116, 24 h, read-out: Activity.

Sequence of Phosphatidylinositol 4,5-bisphosphate 3-kinase catalytic subunit alpha isoform (P42336 whole entry, canonical isoform): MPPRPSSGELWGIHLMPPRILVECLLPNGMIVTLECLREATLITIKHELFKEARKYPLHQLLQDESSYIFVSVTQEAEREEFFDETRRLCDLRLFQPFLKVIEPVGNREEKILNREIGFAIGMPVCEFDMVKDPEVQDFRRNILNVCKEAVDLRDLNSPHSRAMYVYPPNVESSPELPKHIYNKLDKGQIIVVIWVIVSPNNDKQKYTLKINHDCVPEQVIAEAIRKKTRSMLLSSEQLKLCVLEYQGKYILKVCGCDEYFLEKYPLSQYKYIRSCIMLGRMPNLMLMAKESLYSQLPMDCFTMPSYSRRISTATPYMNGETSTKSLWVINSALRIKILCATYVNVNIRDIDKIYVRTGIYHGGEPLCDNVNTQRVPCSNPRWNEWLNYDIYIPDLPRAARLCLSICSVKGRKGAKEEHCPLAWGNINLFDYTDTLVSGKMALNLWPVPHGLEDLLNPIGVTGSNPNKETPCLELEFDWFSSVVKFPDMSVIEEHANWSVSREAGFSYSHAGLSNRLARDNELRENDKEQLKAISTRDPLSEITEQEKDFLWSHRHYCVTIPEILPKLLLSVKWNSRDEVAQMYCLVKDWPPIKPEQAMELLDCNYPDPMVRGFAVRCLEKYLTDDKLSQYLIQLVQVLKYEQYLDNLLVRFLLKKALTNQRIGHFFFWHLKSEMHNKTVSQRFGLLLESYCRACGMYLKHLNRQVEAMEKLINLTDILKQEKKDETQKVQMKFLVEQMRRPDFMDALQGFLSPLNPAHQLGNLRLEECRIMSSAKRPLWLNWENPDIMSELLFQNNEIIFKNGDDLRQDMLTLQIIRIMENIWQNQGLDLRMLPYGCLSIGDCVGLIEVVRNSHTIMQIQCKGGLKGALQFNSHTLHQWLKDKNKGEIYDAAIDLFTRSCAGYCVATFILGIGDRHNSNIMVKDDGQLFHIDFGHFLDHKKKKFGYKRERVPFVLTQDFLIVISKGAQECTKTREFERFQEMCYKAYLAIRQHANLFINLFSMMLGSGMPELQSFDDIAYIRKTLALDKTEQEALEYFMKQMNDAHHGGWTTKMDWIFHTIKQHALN
Sequence of Phosphatidylinositol 4,5-bisphosphate 3-kinase catalytic subunit gamma isoform (P48736 whole entry, canonical isoform): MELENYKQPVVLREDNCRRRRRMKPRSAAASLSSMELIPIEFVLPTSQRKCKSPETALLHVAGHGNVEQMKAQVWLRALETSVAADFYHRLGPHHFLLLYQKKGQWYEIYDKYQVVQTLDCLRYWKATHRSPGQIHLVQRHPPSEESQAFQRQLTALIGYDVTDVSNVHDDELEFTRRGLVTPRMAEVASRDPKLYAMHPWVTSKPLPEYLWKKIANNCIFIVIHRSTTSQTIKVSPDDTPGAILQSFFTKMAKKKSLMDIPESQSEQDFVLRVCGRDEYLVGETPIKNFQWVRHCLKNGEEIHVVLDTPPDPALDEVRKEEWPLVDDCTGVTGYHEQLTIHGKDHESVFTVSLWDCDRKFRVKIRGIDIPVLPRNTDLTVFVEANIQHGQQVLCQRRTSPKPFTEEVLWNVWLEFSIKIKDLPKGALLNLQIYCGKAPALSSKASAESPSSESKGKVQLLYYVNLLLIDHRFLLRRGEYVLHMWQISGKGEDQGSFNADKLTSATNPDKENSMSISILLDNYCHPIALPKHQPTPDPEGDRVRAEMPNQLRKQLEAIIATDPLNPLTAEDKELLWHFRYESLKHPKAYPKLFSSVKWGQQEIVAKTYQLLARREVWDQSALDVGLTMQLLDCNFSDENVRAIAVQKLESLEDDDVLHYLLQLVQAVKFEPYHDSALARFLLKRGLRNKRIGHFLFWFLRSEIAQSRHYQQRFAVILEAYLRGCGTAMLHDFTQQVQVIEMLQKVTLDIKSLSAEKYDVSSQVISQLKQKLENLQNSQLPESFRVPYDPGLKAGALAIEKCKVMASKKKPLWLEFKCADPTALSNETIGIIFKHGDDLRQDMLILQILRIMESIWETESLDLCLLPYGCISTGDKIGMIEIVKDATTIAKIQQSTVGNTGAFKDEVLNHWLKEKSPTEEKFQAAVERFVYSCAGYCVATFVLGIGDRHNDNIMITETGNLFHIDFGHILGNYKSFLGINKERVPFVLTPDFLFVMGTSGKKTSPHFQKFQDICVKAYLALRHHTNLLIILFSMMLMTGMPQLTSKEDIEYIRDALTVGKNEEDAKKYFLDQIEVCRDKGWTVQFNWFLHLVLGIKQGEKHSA

For `Fc1ccc2c(c1)nc1n2CCOc2ccc(Br)cc2-1`, the half-inhibitory concentration (IC50) in test [1] was 27900 nM; in [2] it was above 50000 nM; in test [3], 740 nM; in [4], 780 nM; with A549, 700 nM; in test [5] it was 473 nM. Moreover, the half-inhibitory concentration (IC50) in test [6] turned out to be 740 nM; in test [7], 181 nM.

Take `Cc1ccc2c(c1)-c1nc3cc(C)ccc3n1CCO2`: the half-maximal inhibitory concentration (IC50) in test [1] is 17100 nM; in test [2] it was above 50000 nM; in test [3], 590 nM; in test [4], 580 nM; with A549 it was 610 nM; in test [5], 394 nM. For the same molecule, the concentration for half-maximal inhibition (IC50) turned out to be 670 nM in test [6] and 118 nM in test [7].

On to `Brc1ccc2c(c1)-c1nc3cc(Br)ccc3n1CCO2`, for which the concentration for half-maximal inhibition (IC50) in test [1] turned out to be 19500 nM; in test [2], 39800 nM; in [3] it was 470 nM; in test [4], 470 nM; in the test with A549, 480 nM; in test [5] it was 284 nM. The IC50 in test [6] was 510 nM; in test [7], 92 nM.

Take `Clc1ccc2c(c1)-c1nc3cc(Cl)ccc3n1CCO2`: the half-maximal inhibitory concentration (IC50) in test [1] is 24300 nM; in test [2] it was above 50000 nM; in test [3], 520 nM; in test [4], 530 nM; in the test with A549, 560 nM; in test [5], 363 nM. In addition, the figures for the half-maximal inhibitory concentration (IC50) in test [6] and in test [7] were 450 nM and 127 nM, respectively.

Regarding `Fc1ccc2c(c1)nc1n2CCOc2ccc(Cl)cc2-1`, the half-maximal inhibitory concentration (IC50) in test [1] was determined as 21700 nM; in [2], 42600 nM; in test [3], 1830 nM; in [4], 1890 nM; in the test on A549, 1710 nM; in [5], 488 nM. Further, the IC50 turned out to be 1350 nM in test [6] and 283 nM in test [7].

Regarding `O=c1cc(N2CCOCC2)oc2c(-c3ccccc3)cccc12` [LY-294002], the IC50 in test [2] is 1360 nM; in test [3], 51800 nM; in the test on A549, 82300 nM; in [6], 67200 nM.

Consider `Cc1ccc2c(c1)-c1nc3cc(C(F)(F)F)ccc3n1CCO2`, for which the half-inhibitory concentration (IC50) was 41600 nM in [1]; above 50000 nM in test [2]; 4450 nM in test [3]; 4860 nM in [4]; 4950 nM in the test with A549; 1210 nM in [5]. In addition, the half-maximal inhibitory concentration (IC50) worked out at 6470 nM in [6] and 685 nM in [7].

As for `Cc1ccc2c(c1)-c1nc3cc(Br)ccc3n1CCO2`, the 50% inhibitory concentration (IC50) in test [1] is 44100 nM; in [2] it was 47800 nM; in test [3], 7380 nM; in test [4] it was 7680 nM; in the test with A549, 7880 nM; in [5] it was 1030 nM. In addition, the concentration for half-maximal inhibition (IC50) turned out to be 4910 nM in test [6] and 662 nM in [7].

Take `Cc1ccc2c(c1)-c1nc3cc([N+](=O)[O-])ccc3n1CCO2`: the viability at 0.5 µM in the test with HCT-116 [8] amounted to 79.5%. The Activity was 5.98% in the test with HCT-116 [9]; 15.1% with HCT-116 [10]; 27.3% in the test with HCT-116 [11]; “Dose-dependent effect” with HCT-116 [12]; 4.13% in the test with HCT-116 [13]; 0.974% in the test on HCT-116 [14]. The Activity entry in the test with HCT-116 [15] is “Dose-dependent effect”; with HCT-116 [16] it was 1.26%; with HCT-116 [17] it was 4.91%; in the test on HCT-116 [19], 0.523%; in the test with HCT-116 [20], 17.8%. For the same molecule, the concentration for half-maximal inhibition (IC50) in test [1] worked out at 9440 nM; in [2] it was 34600 nM; in test [3], 80 nM; in [4] it was 100 nM; with A549, 110 nM; in [5], 184 nM. Moreover, the values for the IC50 in test [6] and in test [7] were 120 nM and 16 nM, respectively. In the test on HCT-116 [18], the viability at 1 µM came out at 76.8%. In addition, the viability at 2 µM in the test with HCT-116 [21] was 65.7%.

Turning to `Clc1ccc2c(c1)nc1n2CCOc2ccc(Br)cc2-1`, the IC50 is 11800 nM in [1]; above 50000 nM in test [2]; 120 nM in [3]; 150 nM in test [4]; 170 nM in the test with A549; 188 nM in test [5]. The half-inhibitory concentration (IC50) in [6] was 180 nM; in test [7] it was 31 nM.

With `Cc1ccc2c(c1)-c1nc3cc(F)ccc3n1CCO2`, the 50% inhibitory concentration (IC50) was 34600 nM in test [1]; above 50000 nM in test [2]; 2460 nM in [3]; 4560 nM in [4]; 2850 nM in the test on A549; 907 nM in test [5]. Further, the figures for the IC50 in test [6] and in [7] were 3860 nM and 474 nM, respectively.

Values taken from ChEMBL document CHEMBL3400096, “6,7-Dihydrobenzo[f]benzo[4,5]imidazo[1,2-d][1,4]oxazepine derivatives as selective inhibitors of PI3Kα” (Bioorg Med Chem, 2015).
